US20250152585A1, “PHARMACEUTICAL COMPOUND” (Duke Street Bio Limited, priority 2022, published 2025)
Read-outs that look alike come from different tables or passages of the source.

Experiments:
[1] = target: T1, full length N-terminally FLAG-tagged PARP1 (Homo sapiens, UniProt P09874); assay: PARP1 probe displacement HTRF assay; conditions: for Selectivity: PARP1 over PARP2, ratio Kd (PARP2)/Kd (PARP1); for Kd: binned Kd
[2] = target: T2, N-terminally FLAG-tagged PARP2 (amino acids 1-583) (Homo sapiens, UniProt Q9UGN5); assay: PARP2 probe displacement HTRF assay; assay type: binding; conditions: binned Kd
T2 construct: N-terminally FLAG-tagged PARP2 (amino acids 1-583)
T2 sequence (Q9UGN5 whole entry, the tested form may be a part): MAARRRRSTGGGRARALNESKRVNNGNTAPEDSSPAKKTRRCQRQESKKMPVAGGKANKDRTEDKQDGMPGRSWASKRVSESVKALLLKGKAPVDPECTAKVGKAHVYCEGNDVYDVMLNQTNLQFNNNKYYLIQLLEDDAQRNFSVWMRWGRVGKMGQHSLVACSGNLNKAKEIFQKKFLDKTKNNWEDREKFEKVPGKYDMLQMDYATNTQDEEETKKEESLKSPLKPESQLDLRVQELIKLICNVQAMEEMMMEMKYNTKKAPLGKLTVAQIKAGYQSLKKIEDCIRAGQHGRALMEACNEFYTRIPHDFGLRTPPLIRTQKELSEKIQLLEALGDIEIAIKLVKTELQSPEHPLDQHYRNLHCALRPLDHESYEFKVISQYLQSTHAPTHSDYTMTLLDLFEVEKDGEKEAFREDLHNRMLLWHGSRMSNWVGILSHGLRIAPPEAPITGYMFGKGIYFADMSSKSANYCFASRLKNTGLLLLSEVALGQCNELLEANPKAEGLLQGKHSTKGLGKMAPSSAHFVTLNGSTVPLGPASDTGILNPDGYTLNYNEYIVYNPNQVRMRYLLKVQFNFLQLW
Experimental: Data analysis was performed identical as for PARP1.

[3] = target: T1, full length N-terminally FLAG-tagged PARP1; assay: PARP1 biochemical DELFIA assay (auto-PARylation); design: recombinant full length human N-terminally FLAG-tagged PARP1
[4] = read-out: PARP1 HTRF, probe displacement HTRF
[5] = binned IC50, biochemical auto-PARylation assay
[6] = read-out: PARP1 HTRF, PARP1 probe displacement HTRF
[7] = binned IC50, PARP1 biochemical DELFIA assay
[8] = PARP1 HTRF, PARP1 probe displacement HTRF

T1 sequence (P09874 whole entry, the tested form may be a part): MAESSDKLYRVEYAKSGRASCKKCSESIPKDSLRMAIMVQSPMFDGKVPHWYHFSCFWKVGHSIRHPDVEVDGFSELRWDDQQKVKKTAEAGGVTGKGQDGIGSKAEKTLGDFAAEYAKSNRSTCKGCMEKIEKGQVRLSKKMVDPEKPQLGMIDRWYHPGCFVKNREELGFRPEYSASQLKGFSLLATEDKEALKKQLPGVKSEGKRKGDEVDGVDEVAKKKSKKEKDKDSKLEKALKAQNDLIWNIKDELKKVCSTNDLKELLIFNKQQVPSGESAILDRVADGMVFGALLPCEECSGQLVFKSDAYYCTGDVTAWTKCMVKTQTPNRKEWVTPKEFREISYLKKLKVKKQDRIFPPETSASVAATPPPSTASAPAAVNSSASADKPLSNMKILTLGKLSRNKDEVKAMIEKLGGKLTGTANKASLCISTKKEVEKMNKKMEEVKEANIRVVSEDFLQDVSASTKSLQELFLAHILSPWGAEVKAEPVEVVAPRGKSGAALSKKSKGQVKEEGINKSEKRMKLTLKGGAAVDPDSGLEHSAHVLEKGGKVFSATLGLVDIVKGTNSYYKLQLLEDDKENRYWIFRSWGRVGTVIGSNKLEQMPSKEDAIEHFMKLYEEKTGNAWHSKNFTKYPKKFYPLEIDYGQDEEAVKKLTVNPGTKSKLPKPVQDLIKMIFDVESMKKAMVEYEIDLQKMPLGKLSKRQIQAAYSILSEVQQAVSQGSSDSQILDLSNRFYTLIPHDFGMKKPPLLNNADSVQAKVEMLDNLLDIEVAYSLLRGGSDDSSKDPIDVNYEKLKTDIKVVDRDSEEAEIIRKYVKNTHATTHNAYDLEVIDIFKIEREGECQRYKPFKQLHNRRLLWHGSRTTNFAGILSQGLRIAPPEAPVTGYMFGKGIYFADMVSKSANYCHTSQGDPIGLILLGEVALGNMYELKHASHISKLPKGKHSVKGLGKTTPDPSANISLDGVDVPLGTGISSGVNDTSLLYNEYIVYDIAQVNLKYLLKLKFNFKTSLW

Structure (SMILES)	Selectivity ([1]; probe displacement HTRF)	Kd [1, 4] [nM]	Kd ([2]; probe displacement HTRF) [nM]	IC50 [3, 5] [nM]	Kd [1, 6] [nM]	Kd ([2]; PARP2 probe displacement HTRF) [nM]	IC50 [3, 7] [nM]	Kd [1, 8] [nM]	Kd ([1]; PARP1 HTRF, probe displacement HTRF) [nM]
CNC(=O)c1ccc(N2CCC(N3CCC(c4nc5ncncc5c(=O)[nH]4)C3)CC2)cn1 (racemic) [Compound 335rac]	+ (+ indicates a value of 10 to less than 50)	100 to 1000	> 10000	100 to 1000	–	–	–	–	–
CNC(=O)c1ccc(N2CCC(N3CCC(c4nc5c(c(=O)[nH]4)CCC5)C3)CC2)cn1 (single isomer, unassigned) [Compound 283a]	+ (+ indicates a value of 10 to less than 50)	100 to 1000	> 10000	100 to 1000	–	–	–	–	–
O=C(NCC(F)F)c1ccc(N2CCC(N3CCC(c4cc5cccc(F)c5c(=O)[nH]4)C3)CC2)c(F)n1 (single isomer, unassigned) [Compound 390b]	++ (++ indicates a value of 50 to less than 100)	< 10	10 to 100	< 10	–	–	–	–	–
CNC(=O)c1cc(C)c(N2CCC(N3CCC(c4nc5ccccc5c(=O)[nH]4)C3)CC2)c(C)n1 (single isomer, unassigned) [Compound 224a]	− (− indicates a value of less than 10)	1000 to 10000	1000 to 10000	100 to 1000	–	–	–	–	–
NC(=O)c1ccc(N2CCC(N3CCCC(c4nc5ccccc5c(=O)[nH]4)C3)CC2)cn1 (single isomer, unassigned) [Compound 109b]	+ (+ indicates a value of 10 to less than 50)	–	–	–	100 to 1000	1000 to 10000	10 to 100	–	–
CCCc1ccc(C2CCN(C3CCN(c4ccc(C(=O)NC)nc4)CC3)C2)[nH]c1=O (single isomer, unassigned) [Compound 261b]	+++ (+++ indicate a value of at least 100)	< 10	1000 to 10000	< 10	–	–	–	–	–
CNC(=O)c1ccc(OCCN2CCC(c3nc4ccccc4c(=O)[nH]3)C2)cn1 (single isomer, unassigned) [Compound 62a]	++ (++ indicates a value of 50 to less than 100)	–	–	–	10 to 100	1000 to 10000	10 to 100	–	–
CNC(=O)c1ccc(N2CCC(N3CCC(c4[nH]c(=O)c5cc(F)ccc5c4F)C3)CC2)cn1 (single isomer, unassigned) [Compound 401a]	+++ (+++ indicate a value of at least 100)	< 10	10 to 100	< 10	–	–	–	–	–
CNC(=O)c1ccc(N2CCC(N3CCC(c4[nH]c(=O)c5c(F)cccc5c4F)C3)CC2)c(F)n1 (single isomer, unassigned) [Compound 402b]	+++ (+++ indicate a value of at least 100)	< 10	10 to 100	< 10	–	–	–	–	–
CNC(=O)c1ccc(N2CCC(N3CCCC(O)(c4nc5ccccc5c(=O)[nH]4)C3)CC2)cn1 (single isomer, unassigned) [Compound 327a]	+ (+ indicates a value of 10 to less than 50)	100 to 1000	> 10000	100 to 1000	–	–	–	–	–
CNC(=O)c1ccc(N2CC(N3CCCC(Cc4nc5ccccc5c(=O)[nH]4)C3)C2)cn1 (single isomer, unassigned) [Compound 51b]	− (− indicates a value of less than 10)	–	–	–	1000 to 10000	1000 to 10000	1000 to 10000	–	–
CNC(=O)c1ccc(N2CCC(N3CCC(c4cc5cccc(F)c5c(=O)[nH]4)C3)CC2)c(F)c1 (single isomer, unassigned) [Compound 371a]	+++ (+++ indicate a value of at least 100)	< 10	10 to 100	< 10	–	–	–	–	–
CNC(=O)c1ccc(N2CCC(N3CCC(Cc4nc5ccccc5c(=O)[nH]4)CC3)CC2)cn1 [Compound 54, N-methyl-5-(4-{4-[(4-oxo-3H-quinazolin-2-yl)methyl]piperidin-1-yl}piperidin-1-yl)pyridine-2-carboxamide]	+++ (+++ indicate a value of at least 100)	–	–	–	–	100 to 1000	< 10	< 10	–
CNC(=O)c1ccc(N2CCC(N3CCC(c4nc5cccc(F)c5c(=O)[nH]4)C3)CC2)cn1 (single isomer, unassigned) [Compound 101a]	+ (+ indicates a value of 10 to less than 50)	–	–	–	10 to 100	100 to 1000	10 to 100	–	–
CNC(=O)c1ccc(N2CCC(N3CC4(c5nc6ccccc6c(=O)[nH]5)CCC3C4)CC2)cn1 (single isomer, unassigned) [Compound 245a]	+++ (+++ indicate a value of at least 100)	< 10	100 to 1000	< 10	–	–	–	–	–
N#Cc1ccc(N2CCC(N3CCC(c4nc5ccccc5c(=O)[nH]4)C3)CC2)cn1 (single isomer, unassigned) [Compound 69a]	++ (++ indicates a value of 50 to less than 100)	–	–	–	10 to 100	100 to 1000	< 10	–	–
CCCc1ccc(C2CCN(C3CCN(c4ccc(C(=O)NC)nc4F)CC3)C2)[nH]c1=O (single isomer, unassigned) [Compound 269b]	+ (+ indicates a value of 10 to less than 50)	100 to 1000	> 10000	100 to 1000	–	–	–	–	–
CCc1ccc(C2CCN(C3CCN(c4ccc(C(=O)NC)nc4C(F)F)CC3)C2)[nH]c1=O (single isomer, unassigned) [Compound 164b]	+++ (+++ indicate a value of at least 100)	–	–	–	10 to 100	> 10000	10 to 100	–	–
CNC(=O)c1ccc(N2CCC(N3CCC(c4nc5ccccc5c(=O)[nH]4)C3)CC2)cn1 (racemic) [Compound 10rac]	+++ (+++ indicate a value of at least 100)	–	–	–	–	100 to 1000	< 10	< 10	–
CNC(=O)c1ccc(N2CCC(N3CCC(c4cc5c(c(=O)[nH]4)CCC(=O)N5)C3)CC2)cn1 (single isomer, unassigned) [Compound 309b, 5-(4-(3-(2,5-dioxo-1,2,3,4,5,6-hexahydro-1,6-naphthyridin-7-yl)pyrrolidin-1-yl)piperidin-1-yl)-N-methylpicolinamide]	++ (++ indicates a value of 50 to less than 100)	–	> 10000	10 to 100	–	–	–	–	–
CNC(=O)c1ccc(N2CCC(N3CC(c4cc5cccc(F)c5c(=O)[nH]4)C(F)(F)C3)CC2)cn1 (racemic) [Compound 393rac, 5-(4-(3,3-difluoro-4-(8-fluoro-1-oxo-1,2-dihydroisoquinolin-3-yl)pyrrolidin-1-yl)piperidin-1-yl)-N-methylpicolinamide]	+++ (+++ indicate a value of at least 100)	–	1000 to 10000	< 10	–	–	–	–	< 10
O=C(NC1CC1)c1ccc(N2CCC(N3CCC(c4cc5ncc(F)cc5c(=O)[nH]4)C3)CC2)cn1 (single isomer, unassigned) [Compound 372a]	+ (+ indicates a value of 10 to less than 50)	< 10	100 to 1000	< 10	–	–	–	–	–
CS(=O)(=O)Nc1ccc(N2CCC(N3CCC(c4cc5ccccc5c(=O)[nH]4)C3)CC2)cn1 (single isomer, unassigned) [Compound 252a]	− (− indicates a value of less than 10)	100 to 1000	1000 to 10000	100 to 1000	–	–	–	–	–
CCc1ccc(C2CCN(C3CCN(c4ccc(C(=O)NC5CC5)nc4)CC3)C2)[nH]c1=O (single isomer, unassigned) [Compound 338a]	+++ (+++ indicate a value of at least 100)	< 10	100 to 1000	< 10	–	–	–	–	–
N#Cc1nc(C(=O)NC2CC2)ccc1N1CCC(N2CCC(c3cc4cccc(F)c4c(=O)[nH]3)C2)CC1 (single isomer, unassigned) [Compound 410b]	+++ (+++ indicate a value of at least 100)	< 10	100 to 1000	< 10	–	–	–	–	–
CCc1ccc(C2CCN(C3CCN(c4ccc(C(=O)NC5CC5)nc4C#N)CC3)C2)[nH]c1=O (single isomer, unassigned) [Compound 409b]	+++ (+++ indicate a value of at least 100)	< 10	100 to 1000	< 10	–	–	–	–	–
